Data on 23 molecules can be found in patent US20230303570A1, “KINASE INHIBITORS AND USES THEREOF” (ABM Therapeutics Corporation, priority 2020, published 2023).

The term IC50 denotes the point on the concentration scale where inhibition reaches its midpoint. The term AUC denotes the area under the concentration-time curve, a measure of exposure. A higher AUC goes with high exposure. One may read the Cmax as the highest concentration seen after dosing. One may read the Tmax as the time from dosing to the highest level. What is called half-life is how long it takes for the measured level to halve.

One series concerns the target T1, SRC (Homo sapiens, UniProt P12931).
T1 construct: purchased Carna Biosciences
Nature of the series: In vitro kinase assay, SRC (Caliper EZ Reader conversion). In kind it is biochemical. The conditions noted are these: read-out: SRC IC50.

In the next series the target is PAK1 (Homo sapiens, UniProt Q13153). Nature of the series: In vitro kinase assay, PAK1 (Caliper EZ Reader conversion). The class given is biochemical. More on the design: purchased Carna Biosciences. The method, then: The effect of the compounds on the activity of SRC and PAK1 kinase were assessed. SRC and PAK1 kinase enzymes were obtained from Carna Biosciences.
Test compounds were dissolved in 100% DMSO to prepare a 20 mM stock. Compounds were stored in −20° C. and protected from light. A 100×solution of the compounds were prepared, from which 4-fold serial dilutions was made to achieve a total of 6 concentrations. Saracatinib was used as a positive control for the SRC assay, and FRAX597 was used as a positive control for the PAK1 assay. For the positive controls, a 3-fold serial dilution was made to achieve a total of 10 concentrations. 10 μL 1× Kinase buffer was used as the negative control.
First, 250 nL of the compounds at each dilution were transferred into wells of a 384-well plate. The PAK1 and SRC kinases were diluted to a 2.5×final concentration with 1×Kinase buffer. Then, 10 μL of enzyme mix was added to the 384-well plate, and the enzymes and compounds were pre-incubated at room temperature for 10 minutes. […] Then, 15 μL of substrate mix was added to a 384-well plate and reacted at room temperature for 30 min and 60 min. The reaction was stopped by adding 30 μL of the stop buffer, and the conversion rate was read using a Caliper EZ Reader.
Percent inhibition is calculated according to the following equation: […]
wherein “Conversion %_sample” is the conversion percentage value of the sample; “Conversion %_min” is the average conversion percentage value of the negative control; and “Conversion %_max” is the average conversion percentage value of the positive control.
The dose-response curve was fitted using GraphPad Prism software (version 5, […]), and the IC50 values for each compounds were calculated by log(inhibitor) vs. response using a variable slope program with the following formula:
Y=Bottom+(Top-Bottom)/(1+10^((Log IC50−X)*HillSlope))

Series [1] is described as follows: Mouse pharmacokinetics study (intravenous and oral). In kind it is in vivo. The conditions noted are these: CD-1 mice. An excerpt:
The test articles were formulated in […] Hydroxypropyl-beta-cyclodextrin, either as a clear solution or fine suspension.

PAK1, sequence (Q13153 whole entry): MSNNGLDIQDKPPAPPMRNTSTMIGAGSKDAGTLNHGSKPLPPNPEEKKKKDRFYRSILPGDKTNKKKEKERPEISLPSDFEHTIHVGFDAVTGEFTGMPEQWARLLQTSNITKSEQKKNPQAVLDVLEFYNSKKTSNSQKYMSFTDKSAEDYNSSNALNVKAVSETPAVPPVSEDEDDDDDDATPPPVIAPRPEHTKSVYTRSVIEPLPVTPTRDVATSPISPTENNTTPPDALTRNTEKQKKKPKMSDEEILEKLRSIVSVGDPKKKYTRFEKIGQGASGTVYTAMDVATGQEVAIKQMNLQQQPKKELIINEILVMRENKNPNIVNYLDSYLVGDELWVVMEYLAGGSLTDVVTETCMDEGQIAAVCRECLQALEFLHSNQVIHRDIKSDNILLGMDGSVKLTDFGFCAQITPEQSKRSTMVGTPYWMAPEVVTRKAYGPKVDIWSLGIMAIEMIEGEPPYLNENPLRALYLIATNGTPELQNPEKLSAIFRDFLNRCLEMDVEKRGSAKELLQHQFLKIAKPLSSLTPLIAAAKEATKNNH
T1 sequence (P12931 whole entry): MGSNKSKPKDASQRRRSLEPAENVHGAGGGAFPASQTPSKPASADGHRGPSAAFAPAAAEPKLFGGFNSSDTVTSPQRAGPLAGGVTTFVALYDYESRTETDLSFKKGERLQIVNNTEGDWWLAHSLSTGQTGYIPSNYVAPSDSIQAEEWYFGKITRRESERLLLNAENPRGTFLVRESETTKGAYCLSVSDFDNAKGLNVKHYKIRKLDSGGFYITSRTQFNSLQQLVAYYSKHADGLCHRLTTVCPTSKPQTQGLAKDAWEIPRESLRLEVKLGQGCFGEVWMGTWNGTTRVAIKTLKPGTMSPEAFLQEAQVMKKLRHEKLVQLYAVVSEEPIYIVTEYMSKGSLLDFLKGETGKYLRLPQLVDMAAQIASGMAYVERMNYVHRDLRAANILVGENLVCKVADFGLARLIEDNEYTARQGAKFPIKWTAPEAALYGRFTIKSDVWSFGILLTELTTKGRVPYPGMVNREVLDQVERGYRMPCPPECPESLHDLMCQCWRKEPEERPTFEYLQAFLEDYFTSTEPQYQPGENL

Regarding `COc1nc(N2CCNCC2)ccc1Nc1ncc2c(n1)N1CCN=C1C(c1ccc(-n3ccnc(C)c3=O)cc1)=C2` [Compound 42, 1-(4-(2-((2-methoxy-6-(piperazin-1-yl)pyridin-3-yl)amino)-8,9-dihydroimidazo[1′,2′:1,6]pyrido[2,3-d]pyrimidin-6-yl)phenyl)-3-methylpyrazin-2(1H)-one], the IC50 on SRC and on PAK1 was > 10 µM each time.
As for `C1=C(c2ccccc2)C2=NCCN2c2nc(Nc3ccncc3)ncc21` [Compound 43, 6-phenyl-N-(pyridin-4-yl)-8,9-dihydroimidazo[1′,2′:1,6]pyrido[2,3-d]pyrimidin-2-amine], the figures for the IC50 on SRC and against PAK1 were 0.1 to 10 µM and > 10 µM, respectively.
On to `C1=C(c2ccccn2)C2=NCCN2c2nc(Nc3ccncc3)ncc21` [Compound 44, 6-(pyridin-2-yl)-N-(pyridin-4-yl)-8,9-dihydroimidazo[1′,2′:1,6]pyrido[2,3-d]pyrimidin-2-amine], for which the IC50 on SRC is 0.1 to 10 µM; at PAK1, > 10 µM.
Consider `C1=C(c2ccncc2)C2=NCCN2c2nc(Nc3ccncc3)ncc21` [Compound 45, N,6-di(pyridin-4-yl)-8,9-dihydroimidazo[1′,2′:1,6]pyrido[2,3-d]pyrimidin-2-amine], for which the IC50 on SRC and on PAK1 was > 10 µM each time.
With `Clc1cnccc1C1=Cc2cnc(Nc3ccncc3)nc2N2CCN=C12` [Compound 46, 6-(3-chloropyridin-4-yl)-N-(pyridin-4-yl)-8,9-dihydroimidazo[1′,2′:1,6]pyrido[2,3-d]pyrimidin-2-amine], the IC50 at SRC and on PAK1 was > 10 µM in each case.
Turning to `Clc1ccc(C2=Cc3cnc(Nc4ccncc4)nc3N3CCN=C23)c(Cl)c1` [Compound 47, 6-(2,4-dichlorophenyl)-N-(pyridin-4-yl)-8,9-dihydroimidazo[1′,2′:1,6]pyrido[2,3-d]pyrimidin-2-amine], the IC50 at SRC was 0.1 to 10 µM; against PAK1, > 10 µM.
For the molecule `CN1CCN(CCNc2ncc3c(n2)N2CCN=C2C(c2c(Cl)cccc2Cl)=C3)CC1` [Compound 48, 6-(2,6-dichlorophenyl)-N-(2-(4-methylpiperazin-1-yl)ethyl)-8,9-dihydroimidazo[1′,2′:1,6]pyrido[2,3-d]pyrimidin-2-amine], the IC50 is 0.1 to 10 µM on SRC and > 10 µM at PAK1.
As to `Clc1cccc(Cl)c1C1=Cc2cnc(NCCC3CCNCC3)nc2N2CCN=C12` [Compound 49, 6-(2,6-dichlorophenyl)-N-(2-(piperidin-4-yl)ethyl)-8,9-dihydroimidazo[1′,2′:1,6]pyrido[2,3-d]pyrimidin-2-amine], the IC50 on SRC was 0.1 to 10 µM; on PAK1 it was > 10 µM.
For `Clc1cccc(Cl)c1C1=Cc2cnc(N3CCNCC3)nc2N2CCN=C12` [Compound 50, 6-(2,6-dichlorophenyl)-2-(piperazin-1-yl)-8,9-dihydroimidazo[1′,2′:1,6]pyrido[2,3-d]pyrimidine], the half-inhibitory concentration (IC50) at SRC and against PAK1 was > 10 µM each time.
For `Clc1cccc(Cl)c1C1=Cc2cnc(Nc3ccncc3)nc2N2CCN=C12` [Compound 52, 6-(2,6-dichlorophenyl)-N-(pyridin-4-yl)-8,9-dihydroimidazo[1′,2′:1,6]pyrido[2,3-d]pyrimidin-2-amine], the IC50 on SRC was < 0.1 µM; at PAK1, > 10 µM.
The corresponding values for `Fc1ccccc1Nc1ncc2c(n1)N1CCCN=C1C(c1cccc3[nH]ccc13)=C2` [Compound 57, N-(2-fluorophenyl)-6-(1H-indol-4-yl)-9,10-dihydro-8H-pyrido[1,6-a:2,3-d′]dipyrimidin-2-amine] are > 10 µM and > 10 µM.
In the case of `Fc1ccccc1Nc1ncc2c(n1)N1CCCN=C1C(c1cccc3[nH]ncc13)=C2` [Compound 58, N-(2-fluorophenyl)-6-(1H-indazol-4-yl)-9,10-dihydro-8H-pyrido[1,6-a:2,3-d′]dipyrimidin-2-amine], the IC50 on SRC was 0.1 to 10 µM; against PAK1 it was > 10 µM.
The matching figures for `CNc1ncc2c(n1)N1CCCN=C1C(c1ccc(-n3ccnc(C)c3=O)cc1)=C2` [Compound 64, 3-methyl-1-(4-(2-(methylamino)-9,10-dihydro-8H-pyrido[1,6-a:2,3-d′]dipyrimidin-6-yl)phenyl)pyrazin-2(1H)-one]: > 10 µM and > 10 µM.
In the case of `Fc1cc(N2CCNCC2)ccc1Nc1ncc2c(n1)N1CCCN=C1C(c1ccc(Cl)cc1Cl)=C2` [Compound 68, 6-(2,4-dichlorophenyl)-N-(2-fluoro-4-(piperazin-1-yl)phenyl)-9,10-dihydro-8H-pyrido[1,6-a:2,3-d′]dipyrimidin-2-amine], the IC50 on SRC is 0.1 to 10 µM; on PAK1, > 10 µM.
With `Fc1cc(Nc2ncc3c(n2)N2CCCN=C2C(c2ccc(Cl)cc2Cl)=C3)ccc1N1CCNCC1` [Compound 69, 6-(2,4-dichlorophenyl)-N-(3-fluoro-4-(piperazin-1-yl)phenyl)-9,10-dihydro-8H-pyrido[1,6-a:2,3-d′]dipyrimidin-2-amine], the IC50 is < 0.1 µM on SRC and 0.1 to 10 µM on PAK1.
The corresponding values for `COc1nc(N2CCNCC2)ccc1Nc1ncc2c(n1)N1CCCN=C1C(c1ccc(Cl)cc1Cl)=C2` [Compound 70, 6-(2,4-dichlorophenyl)-N-(2-methoxy-6-(piperazin-1-yl)pyridin-3-yl)-9,10-dihydro-8H-pyrido[1,6-a:2,3-d′]dipyrimidin-2-amine] are 0.1 to 10 µM and > 10 µM.
As for `CNc1ncc2c(n1)N1CCCN=C1C(c1ccc(N3CCN(C)C3=O)cc1Cl)=C2` [Compound 71, 1-(3-chloro-4-(2-(methylamino)-9,10-dihydro-8H-pyrido[1,6-a:2,3-d′]dipyrimidin-6-yl)phenyl)-3-methylimidazolidin-2-one], the IC50 on SRC and against PAK1 was > 10 µM in each case.
On to `CNc1ncc2c(n1)N1CCCN=C1C(c1ccc(-n3cccc(C)c3=O)cc1Cl)=C2` [Compound 72, 1-(3-chloro-4-(2-(methylamino)-9,10-dihydro-8H-pyrido[1,6-a:2,3-d′]dipyrimidin-6-yl)phenyl)-3-methylpyridin-2(1H)-one], for which the IC50 on SRC is > 10 µM; at PAK1 it was 0.1 to 10 µM.
The matching figures for `CNc1ncc2c(n1)N1CCCN=C1C(c1ccc(-n3ccnc(C)c3=O)cc1Cl)=C2` [Compound 73, 1-(3-chloro-4-(2-(methylamino)-9,10-dihydro-8H-pyrido[1,6-a:2,3-d′]dipyrimidin-6-yl)phenyl)-3-methylpyrazin-2(1H)-one]: > 10 µM and > 10 µM.
The corresponding values for `Cc1ccc(NC(=O)c2cccc(C(F)(F)F)c2)cc1C1=Cc2cnc(N)nc2N2CCCN=C12` [Compound 75, N-(3-(2-amino-9,10-dihydro-8H-pyrido[1,6-a:2,3-d′]dipyrimidin-6-yl)-4-methylphenyl)-3-(trifluoromethyl)benzamide] are < 0.1 µM and > 10 µM.
Turning to `Cc1ccc(NC(=O)c2cc(C(C)(C)C#N)ccn2)cc1C1=Cc2cnc(Nc3cnn(C)c3)nc2N2CCN=C12` [Compound 199, 4-(2-cyanopropan-2-yl)-N-(4-methyl-3-(2-((1-methyl-1H-pyrazol-4-yl)amino)-8,9-dihydroimidazo[1′,2′:1,6]pyrido[2,3-d]pyrimidin-6-yl)phenyl)picolinamide], in series [1] (mouse, plasma, PO 25 mg/kg), the area under the curve (AUC) was determined as 1730 ± 619 ng·h/mL, the Cmax came out at 245 ± 37 ng/mL and the Tmax worked out at 2 h.
Regarding `Cc1cc(F)c(NC(=O)c2cc(C(C)(C)C#N)ccn2)cc1C1=Cc2cnc(Nc3cnn(C)c3)nc2N2CCN=C12` [Compound 202, 4-(2-cyanopropan-2-yl)-N-(2-fluoro-4-methyl-5-(2-((1-methyl-1H-pyrazol-4-yl)amino)-8,9-dihydroimidazo[1′,2′:1,6]pyrido[2,3-d]pyrimidin-6-yl)phenyl)picolinamide], the F in series [1] (PO 25 mg/kg) was 56 ± 9%. In series [1] (mouse, plasma, IV 5 mg/kg), this molecule had a Vd of 9.64 ± 1.99 L/kg and a half-life of 3.99 ± 0.72 h. Moreover, the clearance in series [1] (mouse, plasma, IV 5 mg/kg, read-out: Clp) is 27.8 ± 1 mL/min/kg. In series [1] (mouse, plasma, PO 25 mg/kg), the area under the curve (AUC) came out at 8160 ± 1270 ng·h/mL, the Cmax is 839 ± 59 ng/mL and the Tmax was found to be 1.67 ± 0.58 h.
Turning to `Cc1cc(Nc2ncc3c(n2)N2CCN=C2C(c2cc(NC(=O)c4cc(C(F)(F)F)ccn4)ccc2C)=C3)sn1` [Compound 242, N-(4-methyl-3-(2-((3-methylisothiazol-5-yl)amino)-8,9-dihydroimidazo[1′,2′:1,6]pyrido[2,3-d]pyrimidin-6-yl)phenyl)-4-(trifluoromethyl)picolinamide], in series [1] (mouse, plasma, PO 25 mg/kg), the AUC amounted to 36900 ± 4060 ng·h/mL, the Cmax stood at 3060 ± 253 ng/mL and the Tmax turned out to be 1.67 ± 0.58 h.
